{"source": "patent US6372727B1", "about": "“Metalloporphyrin treatment of neurologic disease” (UAB Research Foundation, priority 1999, dated 2002)", "key": {"[1]": {"experiment": "MP-catalyzed nitration of HPA: effect of pH, reductants and serum", "assay_type": "biochemical", "procedure": "Single additions of 100 μM peroxynitrite were made to reactions containing ascorbate or GSH. Three sequential additions of 100 μM peroxynitrite were made to all other reactions.\n(§1) This level of bicarbonate results in rapid saturation of the solution with carbon dioxide (˜1 mM). Solutions were placed into a rapidly stirred cuvette and nine bolus additions (50 μM×3, 100 μM×3, and 200 μM×3) of peroxynitrite were made sequentially while the absorbance was monitored. Increasing amounts of peroxynitrite were added in a sequential manner in order to determine whether nitration efficiency varied with concentration and to determine whether nitration catalysis was maintained with multiple additions (see FIG. 6 inset). Nitration efficiency was defined as the amount of nitropeptide formed per amount of peroxynitrite added and was calculated for each peroxynitrite addition; the values shown are the average of all nine peroxynitrite additions. The absorbance changes associated with nitrotyrosine peptide production were monitored simultaneously at 380, 430, and 460 nm. The extinction coefficients for nitrated GYA at pH 7.4 are 4,400 M^−1cm^−1 at 430 nm and 2,200 M^−1cm^−1 at both 380 and 460 nm. […] Wavelengths used to quantify nitrotyrosine production were chosen to minimize interference by the particular metalloporphyrin used. Experiments using HPA as a nitration target (FIG. 7) contained 8 mM HPA in either 0.1 M potassium phosphate, pH 7.4 or 0.1 M sodium borate, pH 9.1."}, "[2]": {"experiment": "MP-catalyzed peroxynitrite decomposition monitored at 302 nm", "assay_type": "biochemical", "settings": "100 μM peroxynitrite, absence of added reductants", "procedure": "Peroxynitrite (100 μM) was added to rapidly stirred cuvettes at 37° C. containing the indicated concentrations of MPs in 0.1 M potassium phosphate, pH 7.4. Ascorbate was added to 150 μM where indicated. Peroxynitrite decomposition was monitored at 302 nm using a Hewlett-Packard diode-array spectrophotometer. Apparent rates (kapparents^−1, average of n=3) were plotted versus MP concentration to determine rate constants in M^−1s^−1.\nReactions contained the indicated concentration of FeTCPPin 1.4 ml of 0.1 M potassium phosphate, pH 7.4 in the absence or presence to 150 μM ascorbic acid. Peroxynitrite (100 μM) was added to rapidly stirred cuvettes at 37° C. and the decay of peroxynitrite was monitored continuously at 302 nm. Decay data were fitted to the equation describing first order decay to obtain apparent decay rates (kapparent sec^−1). Apparent decay rates as a function of FeTCPP were fitted by linear regression and the rate constant was obtained slope of the line.\nPeroxynitrite (100 μM) decomposition was determined at 302 nm using a Hewlett-Packard diode-array spectrophotometer fitted with a temperature-controlled cuvette chamber and a water-driven cuvette stirrer. Bolus additions of peroxynitrite were made to vigorously stirred cuvettes containing varying concentrations of MPs (see Table III) while data were collected at a rate of ten points/sec. […] Each reaction was repeated three times and only the first additions of peroxynitrite were averaged. Data were exported for fitting and plotting. Apparent rates of peroxynitrite decomposition were plotted as a function of metalloporphyrin concentration (as shown in FIG. 5) to determine concentration-independent rate constants at 37° C.\nRates of peroxynitrite (100 μM) decomposition were determined at different MP concentrations. Ascorbate was added to 150 μM where indicated. […] Apparent rate constants were plotted versus MP concentration (as in FIG. 5A,B) to determine true rate constants in M^−1s^−1±standard error."}, "[3]": {"settings": "MP 5 μM, GSH 2 mM, 0.1 M potassium phosphate pH 7.4, 37° C.", "procedure": "Aliquots (14 μl) were removed at 10 min intervals and added to 1.4 of 0.1 M potassium phosphate, pH 7.4 containing 0.2 mM dithionitrobenzoic acid (Ellman's Reagent) and 50 μM EDTA. GSH concentration was determined by the change in 430 nm absorbance. The extinction coefficient at 430 nm was determined to be 13,900 M^−1cm^−1 using a fresh GSH solution standardized by weight.\n(§2) In order to test the hypothesis that Mn(II)- or Fe(II)-porphyrins would be capable of carrying out two-electron reductions of peroxynitrite and thereby decreasing rather than increasing its reactivity, attempts were made to pre-reduce these transition metal-containing MPs prior to addition of peroxynitrite."}, "[4]": {"experiment": "Ascorbate oxidation by MPs monitored at 266 nm", "assay_type": "biochemical", "settings": "MP 10 μM, 50 μM ascorbate, 0.1 M potassium phosphate pH 7.4, ± standard error, n=3", "procedure": "as §2\nTable V. Ascorbate oxidation by MPs. MPs (10 μM) were added to stirred cuvettes containing 0.1 M potassium phosphate, pH 7.4 and 50 μM ascorbate. Ascorbate oxidation was monitored at 266 nm (ηm=17,700 M^−1cm^−1). Oxidation rates (±standard errors) were determined by fitting the initial linear portion of each curve and averaging the rates (n=3)."}, "[5]": {"system": "ALS-SOD1 (G93A) transgenic mice", "settings": "cited from earlier work"}, "[6]": {"settings": "references (43), (5); cited from earlier work"}, "[7]": {"experiment": "Peroxynitrite-mediated nitration of GYA peptide", "assay_type": "biochemical", "settings": "2 mM GYA, 10 μM MP or SOD subunit, 1 mM CO2, pH 7.4, 37° C.", "procedure": "Nitration efficiency, defined as the moles of nitrated GYA peptide formed per mole of peroxynitrite added, was determined at a fixed concentration of 10 μM MP or Cu,Zn SOD subunit, or 1 mM CO2 as described below. Increasing amounts of peroxynitrite were added in a sequential manner in order to determine whether nitration efficiency varied with concentration and to determine whether nitration catalysis was maintained with multiple additions (see INSET). Nitration efficiency was calculated for each peroxynitrite addition; the values shown are the average of all nine peroxynitrite additions. Absorbance changes were monitored simultaneously at 380, 430, and 460 nm.\nas §1, with “For nitration of GYA peptide (see FIG. 6), reaction solutions contained 2 mM GYA and 10 μM of the indicated MP in 1.4 ml of 0.1 M potassium phosphate, pH 7.4 at 37° C. Comparisons with two previously characterized nitration catalysts, human Cu,Zn superoxide dismutase (hCu,Zn SOD) and carbon dioxide, were made using 10 μM of SOD subunit and 25 mM potassium bicarbonate, respectively, which was pH-adjusted to 7.4. This” for “This”\nThe relative abilities of several MPs to enhance nitration of the tripeptide GYA was compared using 10 μM MP and sequential bolus additions of 50 μM (×3), 100 μM (×3), and 200 μM (×3)peroxynitrite (FIG. 6, inset)."}, "bovine serum albumin": {"system": "bovine serum albumin", "settings": "reference (35); cited from earlier work"}}}
{"molecule": "C[n+]1ccc(-c2c3nc(c(-c4cc[n+](C)cc4)c4ccc([n-]4)c(-c4cc[n+](C)cc4)c4nc(c(-c5cc[n+](C)cc5)c5ccc2[n-]5)C=C4)C=C3)cc1.[Cl-].[Cl-].[Cl-].[Cl-].[Cl-].[Fe+3]", "note": "[FeTMPyP, Iron (III) meso-tetra-(N-methyl-4-pyridyl)-porphine chloride]", "values": [{"measurement": "enhancement of nitration yield at pH 9.1", "setting": "[1]; 8 mM HPA, 10 μM MP, 0.1 M sodium borate pH 9.1, versus non-catalyzed", "value": 10.7, "unit": "fold"}, {"measurement": "effect of ascorbate and GSH on nitration enhancement", "setting": "[1]; concentrations which eliminated non-catalyzed nitration", "value": "much less inhibitory effect"}, {"measurement": "ascorbate concentration giving complete inhibition of nitration enhancement", "setting": "[1]; dose-dependent, not shown", "value": 1.5, "unit": "mM"}, {"measurement": "effect of serum on nitration enhancement", "setting": "[1]; fresh human serum 1:10 added prior to peroxynitrite", "value": "much less effect"}, {"measurement": "Rate Constants for MP-Catalyzed Decomposition of Peroxynitrite (pH 7.4, 37° C.)", "setting": "[2]", "value": "7.9 × 10^5 ± 0.9 M^−1s^−1"}, {"measurement": "effect of HOCl on the MP", "setting": "50 μM HOCl", "value": "appeared to destroy the metal-pyrrole center"}, {"measurement": "oxidation by H2O2", "setting": "0.5 mM H2O2, 20 min", "value": "did not appear to oxidize"}, {"measurement": "rate of GSH oxidation", "setting": "[3]", "value": 22, "unit": "µM/min"}, {"measurement": "Rate of Ascorbate Oxidation", "setting": "[4]", "value": "146.20 ± 7.2", "unit": "µM/min"}]}
{"molecule": "Nc1nc2ccc(OC(F)(F)F)cc2s1", "note": "[Rilutek, riluzole]", "values": [{"measurement": "extension of lifespan", "setting": "[5]", "value": "about 7 days"}]}
{"molecule": "Cu,Zn superoxide dismutase: human Cu,Zn superoxide dismutase, previously characterized endogenous nitration catalyst", "values": [{"measurement": "rate of reaction with superoxide", "setting": "[6]", "value": "2e+09", "unit": "M⁻¹ s⁻¹"}, {"measurement": "enhancement of nitration yield", "setting": "[7]", "value": 2, "unit": "fold"}]}
{"molecule": "iron(III)-tetra-(2,4,6,-trimethyl-3-,3-disulfonatophenyl)-porphyrin [FeTMPS]", "values": [{"measurement": "nitration of tyrosine residues in bovine serum albumin", "setting": "bovine serum albumin", "value": "inhibited"}]}
